Laboratory results taken from ChEMBL document CHEMBL1142643, “Haligramides A and B, two new cytotoxic hexapeptides from the marine sponge Haliclona nigra” (J Nat Prod, 2000).
Converted amounts (≈) assume the structure as drawn. Starred links: 1 amine or outer side, 2 acyl side, 3 side chain; linkers in the order of their positions; H or OH if unused. Non-standard residues stand in square brackets, D forms with d. Residues, ends and D or L forms follow the SMILES beside them. X1 = O=C(c1csc([C@H](Cc2ccccc2)N[*:1])n1)[*:2]; Met(O) = CS(=O)CC[C@H](N)C(=O)O

Legend:
Type in all cases: functional, cell-based
A549 = experiment: Cytotoxicity against human A549 cells after 2 days; settings: A549, 48 h
HCT-15 = experiment: Cytotoxicity against human HCT15 cells after 2 days; settings: HCT-15, 48 h
SF-539 = experiment: Cytotoxicity against human SF539 cells after 2 days; settings: SF-539, 48 h
SNB-19 = experiment: Cytotoxicity against human SNB19 cells after 2 days; settings: SNB-19, 48 h

| SMILES | IC50 (A549) [µg/mL] | IC50 (HCT-15) [µg/mL] | IC50 (SF-539) [µg/mL] | IC50 (SNB-19) [µg/mL] |
| --- | --- | --- | --- | --- |
| CSCC[C@@H]1NC(=O)[C@@H]2CCCN2C(=O)[C@@H]2CCCN2C(=O)[C@H](CCSC)NC(=O)c2csc(n2)[C@H](Cc2ccccc2)NC(=O)[C@@H]2CCCN2C1=O [HALIGRAMIDE A] (cyclo(MPPMP[X1])) | 5.17 (≈ 6.59 µM) | 15.6 (≈ 19.9 µM) | 9 (≈ 11.5 µM) | 9.08 (≈ 11.6 µM) |
| CSCC[C@@H]1NC(=O)[C@@H]2CCCN2C(=O)[C@@H]2CCCN2C(=O)[C@H](CC[S+](C)[O-])NC(=O)c2csc(n2)[C@H](Cc2ccccc2)NC(=O)[C@@H]2CCCN2C1=O (stereo partly drawn) [HALIGRAMIDE B] (cyclo(MP[X1][Met(O)]PP)) | 3.89 (≈ 4.86 µM) | 8.82 (≈ 11 µM) | 5.01 (≈ 6.26 µM) | 6.56 (≈ 8.2 µM) |
